US20100183692A1, “COMPOSITIONS” (priority 2007, published 2010)
“Also recorded” adds a separate entry of the source.

Tests used:
Type in all cases: cell-based
[1] = tested on: Aspergillus niger ATCC 16404 spores; experiment: Sporicidal effect of a) and b) compounds in a cosmetic cream; settings: for Reduction factor: cosmetic cream
Protocol: A preservative-free cosmetic cream for application to the human skin is used (Cremor basalis, Fagron GmbH, Barsbüttel, Germany).
Test samples of cream contain different amounts of compounds a) and b) added to an aliquot of 10 g of the cream in 50 ml tubes to give a concentration (w/w) of 0.125-0.25% as shown in the table below. After addition of the compounds a) and b), the cream is thoroughly mixed to achieve a homogeneous distribution.
After 1-3 days of equilibration of the cream (storage at room temperature to achieve a homogenous partitioning of compounds between oil and water phase), to each sample 100 μl of a spore suspension of Aspergillus niger ATCC 16404 containing 3×10^7 spores/ml (prepared as described in example 1) is added. After regular test intervals (7 days), samples of 1 g cream are removed and added to 20 ml of a neutralizer solution containing 0.2% lecithin, 2% Tween 80 and 0.5% NaCl. These dilutions are vigorously shaken for 10 min until the cream is dissolved, and then aliquots of this solution are spread plated on potato dextrose agar containing 0.2% Tween 80. After a sufficient time for colonies to grow (about 48 h), the number of colony forming units (and therefore surviving spores in the cream) are counted.

[2] = tested on: Staphylococcus aureus (DSMZ 799) and Pseudomonas aeruginosa (ATCC 15442), mixed 1:1; experiment: Bactericidal effect of a) and b) compounds in a cosmetic cream
Protocol: Test samples of the same cream used in Example 2 contain different amounts of compounds a) and b) added to an aliquot of 10 g of the cream in 50 ml tubes to give a concentration (w/w) of 0.125-0.25% as shown in the table below. After addition of the compounds a) and b), the cream is thoroughly mixed to achieve a homogeneous distribution.
As test organisms Staphylococcus aureus (DSMZ 799) and Pseudomonas aeruginosa (ATCC 15442) are used. The strains are grown overnight in Mueller-Hinton broth and adjusted to a cell density of 1×10^8 cfu (colony forming units) per ml.
The two bacterial strains are mixed in a ratio of 1:1 and 100 μl of this mixed inoculum is added to 10 ml aliquots of the cosmetic cream.
The resulting mixtures are incubated at room temperature and at the regular intervals samples are removed, suspended in neutralizer solution and diluted as described above (example 2).
Aliquots of these suspended and diluted samples are plated on tryptic soy agar supplemented with 0.5% Tween 80 and then incubated for 24 h at 37° C. Surviving bacteria are counted.

[3] = tested on: Aspergillus niger ATCC 16404 spores; experiment: Sporicidal effect of test compounds in water; settings: for Spores/ml / Reduction factor: 0.1% test compound in water, after 7 days; for Reduction factor: count of negative control divided by count of test compound; for Reduction of spore counts / sporicidal effect in water (in words): 0.1% test compound, 7 days
Protocol: The reduction factor is determined by growing a suitable test organism (Aspergillus niger for fungi, Pseudomonas aeruginosa for gram-negative bacteria and Staphylococcus aureus for gram-positive bacteria) on a suitable culture medium on agar plates, harvesting and adding to a personal care product composition in a density of 3×10^5 organism/ml and counting the surviving organisms in the probe and a negative control at defined time interval, commonly 7 days. The count of the negative control is divided by the count of the probe and thereby the reduction factor is determined (compare example 1).
Aspergillus niger ATCC 16404 spores are added to water to obtain a density of 3×10^5 spores 1 ml. In order to prepare the spores, the test strain is grown for 5 days on potato dextrose agar at room temperature. The spores are harvested with a solution containing 0.1% Tween 80, peptone 0.1% and NaCl 0.85% and the spore concentration is adjusted to the density indicated above.
Test compounds are dissolved in dipropyleneglycol to a concentration of 20%.
These stock solutions are added to 10 ml aliquots of the spore suspension to obtain a final concentration of the test compounds of 0.1%. The sporicidal effect is shown by a reduction of spore counts after 7 days.
The reduction factor is determined as follows. Aliquots of the above prepared suspension of microorganisms (here: spore suspension prepared as described above) are plated on a suitable agar medium (see above) and the developing colonies are counted both for samples with test compound and for a negative probe (water). The count of the negative control is divided by the count of the test compound and thereby the reduction factor is determined. A negative control (water) accordingly has a reduction factor of 1 (no effect on the microorganism).

[4] = fragrant acid (sodium salt) 0.125% w/w, 4-HBA 0, after 7 days
[5] = fragrant acid (sodium salt) 0.250% w/w, 4-HBA 0, after 7 days
[6] = fragrant acid (sodium salt) 0.125% w/w, 4-HBA 0, after 24 h
[7] = fragrant acid (sodium salt) 0.250% w/w, 4-HBA 0, after 24 h

SMILES | Sporicidal activity in cream (in words) ([1]; combined with cinnamic acid or anisic acid in cream at 0.125% concentration, within 7 days) | Reduction factor ([1]; no fragrant acid, 4-HBA 0.125% w/w, after 7 days) | Reduction factor ([2]; no fragrant acid, 4-HBA 0.125% w/w, bacterial counts after 24 h) | Spores/ml [3] | Reduction factor [3] | Reduction of spore counts / sporicidal effect in water (in words) [3] | Reduction factor [1, 4] | Reduction factor [1, 5] | Reduction factor [2, 6] | Reduction factor [2, 7]
O=Cc1ccc(O)cc1 [4-hydroxybenzaldehyde] | complete killing of spores | 5.5 | 10 | >1.2 × 10^5 Spores/ml | <2 | no significant sporicidal effect; also recorded: No significant reduction of spore counts |  |  |  | 
O=C(O)/C=C/c1ccccc1 [Cinnamic acid, cinnamic acid] |  |  |  |  |  |  | 1.0 | 1.1 | 2.0 | 10
COc1ccc(C=O)cc1 [4-methoxy-benzaldehyde, 4-methoxybenzaldehyde] |  |  |  | 4.68 × 10^4 Spores/ml | 5 | No significant reduction of spore counts |  |  |  | 
COc1ccc(C(=O)O)cc1 [Anisic acid, anisic acid] |  |  |  |  |  |  | 1.4 | 12.5 | 1 | 5
